Data on 13 compounds can be found in patent US9043995B2, “Transgenic fish and uses thereof” (CITY UNIVERSITY OF HONG KONG, priority 2010, dated 2015).

Structures are written as SMILES. Entries after “also recorded” stand apart in the source; their conditions may differ.

Assay [1] concerns transgenic medaka fish larvae (omChgH promoter-EGFP). The assay is described as follows: Binary exposure with E2: change of the liver GFP signal induced by 17β-estradiol in transgenic medaka larvae (agonism / anti-estrogen activity). In kind it is in vivo, Oryzias melastigma. As to conditions: for effect on estrogenic activity / liver GFP signal induced by 17β-estradiol: binary exposure with E2. The method, then: Another method of the present invention relates to a method of screening for a compound having anti-estrogenic activity.
(§1) In response to different concentrations of estrogen or estrogen-like chemical substances, transgenic fish expresses varying quantity of EGFP protein which is presented as varying GFP signal intensity under fluorescence microscope. […] To quantify the estrogen-like activity of test solution, fluorescent image of fish liver is recorded using a camera connected with the fluorescence microscope. Liver GFP signal intensity can then be measured using some image analysis software such as Metamorph (Universal Imaging). To reduce the interference of fish autofluorescence, only fish liver area was selected for the analysis. The average signal intensity of the manually marked area calculated using the same software was regarded as GFP signal intensity. Fish liver photos recorded using the same image parameter setting can be compared directly using GFP signal intensity, those photos recorded using varying image parameter settings can also be compared as long as each group contain a common reference control.
6-acetyl-1,1,2,4,4,7-hexamethyltetraline (AHTN) is one of the most widely used polycyclic musk. This compound is used as a fragrance ingredient in cosmetics and household cleaning products. According to HERA Risk Assessment reports in 2004, AHTN is produced in an annual volume of 1000 to 5000 tons in one Netherland and UK plant, respectively. According to HERA Risk Assessments, AHTN is not toxic to humans basing on present daily consumption. However, the ubiquitous distribution, high accumulation in environment (A Peck et al. Environ Sci Technol. 40: 5629-5635 (2006)), and bioaccumulation in organisms including human beings (H Nakata et al. Environ Sci Technol. 41: 2216-2222 (2007); S Lignell et al. Environ Sci Technol. 42: 6743-6748 (2008)) raise the concern of scientists. AHTN is found to be estrogen antagonist (RHMM Schreurs et al. Environ Sci Technol. 38: 997-1002 (2004); RHMM Schreurs et al. Toxicol Sci. 83: 264-272 (2005)). The estrogen antagonist activity of AHTN can also be very easily evaluated using transgenic medaka fish of present invention. Just expose transgenic medaka fish larvae to E2 (e.g. 0.04 μM) or E2 incombination with AHTN (e.g. 5 μM) for a period of time (e.g. 24 hours), and then measure the GFP signal intensity induced by E2 with/without the presence of AHTN.

For assay [2], the system named is transgenic brackish medaka larvae (omChgH promoter-EGFP). In words: Estrogen-like activity: induced liver GFP signal in omChgH promoter-EGFP transgenic brackish medaka fish exposed to test solution. It counts as in vivo, Oryzias melastigma. As to conditions: for induction of GFP expression in the liver, compound alone: transgenic O. melastigma fish/larvae; for induction of liver GFP expression: transgenic brackish medaka larvae, at nM level; for GFP signal in the liver: phytoestrogens separately, high concentrations, 48 hours. The protocol: A generalized exposure regimen is established in the present art. FIG. 4 presents an example of using transgenic fish larvae to analyze the estrogen-like activity of a test solution. Exposure of transgenic brackish medaka fish (preferably yolk-sac larvae fish) to test solution (containing estrogen or estrogenic substances) is performed at 28° C. The exposure usually takes 24-48 hours. After exposure, the fish will be deposited on the inner side of a petri-dish cover with a small drop of test solution left. The induced EGFP expression in the fish liver will be observed under fluorescence microscope. Yolk-sac larvae are small, exposure can be carried out in utensils like 96-well plate, 24-well plate, petri-dish and so on to save test reagents. Additionally, newly hatched larvae are the most transparent stage, and the transparence can keep up to 15 days after hatch. After 15 days, the larvae will be gradually less transparent due to the development of muscle. The transgenic fish larvae of 1 to 15 days after hatch have similar estrogen sensitivity (FIG. 5).
as §1
Estrone (E1), 17β-estradiol (E2) and estriol (E3) are natural steroid estrogens. […] Of them, E2 has been intensively studied, and is commonly used as a standard estrogen to evaluate the estrogen-like activity of testing reagents. Using transgenic larvae of present invention, induced GFP signal by E2 can usually be observed within 24 hours, and the GFP signal increases with the increasing concentration of E2. At higher E2 concentrations (e.g., 102 or 1020 nM), induced GFP signal intensity can even be observed within 4 hours after onset of exposure, and the signal increases with exposure time (FIG. 8), and reaches saturation within 24 hours. At low E2 concentrations, however, it will take longer for the induced GFP signal to accumulate to become detectable. Thus, by exposing transgenic brackish medaka fish larvae to different concentrations of E2 for a period of time (such as 24 hours), imaging the GFP expressing liver, and then measuring the induced liver GFP signal intensity using image analysis software, a standard curve correlating GFP signal intensity and E2 concentration can be established (GFP-E2 standard curve; FIG. 9). Using the same regimen, and also include one known E2 concentration exposure as reference, the estrogen-like activity of test reagents can then be evaluated as estrogen potency equivalent by referring the induced liver GFP signal to that of GFP-E2 standard curve.

`CC(=O)c1cc2c(cc1C)C(C)(C)C(C)CC2(C)C` (stereo not drawn) [AHTN, 6-acetyl-1,1,2,4,4,7-hexamethyltetraline]: the “GFP signal induced by E2 in the presence of AHTN” value in assay [1] (E2 0.04 μM, AHTN 5 μM, 24 hours) was “weaker GFP signal”. Also, in assay [1], the “effect on estrogenic activity / liver GFP signal induced by 17β-estradiol” value is recorded as “decreased”. As to `COc1ccc(C(=O)CC(=O)c2ccc(C(C)(C)C)cc2)cc1` [BMDM, 4-tert-Butyl-4′-methoxydibenzoylmethane], the “induction of GFP expression in the liver, compound alone” value (from here on “induction of GFP expression”) in assay [2] is “cannot induce the GFP expression”. In addition, in assay [1], the “effect on estrogenic activity / liver GFP signal induced by 17β-estradiol” value was “estrogen agonism”. Consider `CC(C)(c1ccc(O)cc1)c1ccc(O)cc1` [BPA, bisphenol A], for which the “induction of GFP expression” value in assay [2] is on record as “can also induce GFP expression”. As for `C[C@]12CC[C@@H]3c4ccc(O)cc4CC[C@H]3[C@@H]1CC[C@@H]2O` [E2, 17β-estradiol, reference compound], in assay [2] (102 or 1020 nM, after onset of exposure), the “time until induced GFP signal can be observed, higher E2 concentrations” value is at most 4 h. Besides, in assay [2] (embryo, larva and male fish), the “induced expression of transgene GFP in the liver” value is “can also be induced”. Also, the “time until GFP signal reaches saturation” value in assay [2] (higher E2 concentrations (102 or 1020 nM)) is at most 24 h. Further, the “induction of liver GFP expression” value in assay [2] is reported as “can induce liver GFP expression”. Moreover, in assay [2] (transgenic larvae, E2 exposure), the “time until induced GFP signal can be observed” value is at most 24 h. On to `C[C@]12CC[C@@H]3c4ccc(O)cc4CC[C@H]3[C@@H]1C[C@@H](O)[C@@H]2O` [E3, estriol, reference compound], for which the “induction of liver GFP expression” value in assay [2] is reported as “can induce liver GFP expression”. With `CC1CC(OC(=O)c2ccccc2O)CC(C)(C)C1` (stereo not drawn) [HMS, homosalate], in assay [2], the “induction of GFP expression” value is given as “cannot induce the GFP expression”. In assay [1], the “effect on estrogenic activity / liver GFP signal induced by 17β-estradiol” value is listed as “can enhance the estrogenic activity of 17β-estradiol in a dose-dependent manner; also recorded: increased”. For the compound `CCCCCCCCCc1ccc(O)cc1` [NP, 4-nonyphenol], the “induction of GFP expression” value in assay [2] is recorded as “can also induce GFP expression”. `CCCCC(CC)COC(=O)c1ccc(N(C)C)cc1` (stereo not drawn) [OD-PABA, octyl dimethyl PABA]: the “induction of GFP expression” value in assay [2] was “cannot induce the GFP expression”. The “effect on estrogenic activity / liver GFP signal induced by 17β-estradiol” value in assay [1] is listed as “estrogen agonism”. For the compound `O=c1c(-c2ccc(O)cc2)coc2cc(O)ccc12` [daidzein], the “GFP signal in the liver” value in assay [2] is recorded as “weak GFP signal”.

As for `O=c1c(-c2ccc(O)cc2)coc2cc(O[C@@H]3O[C@H](CO)[C@@H](O)[C@H](O)[C@H]3O)ccc12` [daidzin], the “GFP signal in the liver” value in assay [2] is “weak GFP signal”. `C#C[C@]1(O)CC[C@H]2[C@@H]3CCc4cc(OC)ccc4[C@H]3CC[C@@]21C` [ethinylestradiol 3-methyl ether, reference compound]: the “induced liver GFP signal compared with E2” value in assay [2] (same concentration (nM), same period (24 hours)) is reported as “stronger than that induced by E2”. On to `O=c1c(-c2ccc(O)cc2)coc2cc(O)cc(O)c12` [genistein], for which, in assay [2], the “GFP signal in the liver” value is “weak GFP signal”. `O=c1c(-c2ccc(O)cc2)coc2cc(O[C@@H]3O[C@H](CO)[C@@H](O)[C@H](O)[C@H]3O)cc(O)c12` [genistin]: the “GFP signal in the liver” value in assay [2] is reported as “weak GFP signal”.
